Results reported in patent publication US8168656B2, “Indoleacetic acid and indenacetic acid derivatives as therapeutic agents with reduced gastrointestinal toxicity” (Vanderbilt University, priority 2009, dated 2012).
Positions count from the first letter of the chain named.

Experiments:
mCOX-2^V349I [1] = target: T1, mCOX-2^V349I (Mus musculus, UniProt Q05769, V335I); experiment: Activity recovery assay (reversibility of COX inhibition); assay type: biochemical, murine; conditions: 10 μM inhibitor, 50 μM AA
T1 construct: made in house; host or cells: Sf9 insect cells (baculovirus, pVL1393)
T1 sequence (Q05769 18-604 V335I): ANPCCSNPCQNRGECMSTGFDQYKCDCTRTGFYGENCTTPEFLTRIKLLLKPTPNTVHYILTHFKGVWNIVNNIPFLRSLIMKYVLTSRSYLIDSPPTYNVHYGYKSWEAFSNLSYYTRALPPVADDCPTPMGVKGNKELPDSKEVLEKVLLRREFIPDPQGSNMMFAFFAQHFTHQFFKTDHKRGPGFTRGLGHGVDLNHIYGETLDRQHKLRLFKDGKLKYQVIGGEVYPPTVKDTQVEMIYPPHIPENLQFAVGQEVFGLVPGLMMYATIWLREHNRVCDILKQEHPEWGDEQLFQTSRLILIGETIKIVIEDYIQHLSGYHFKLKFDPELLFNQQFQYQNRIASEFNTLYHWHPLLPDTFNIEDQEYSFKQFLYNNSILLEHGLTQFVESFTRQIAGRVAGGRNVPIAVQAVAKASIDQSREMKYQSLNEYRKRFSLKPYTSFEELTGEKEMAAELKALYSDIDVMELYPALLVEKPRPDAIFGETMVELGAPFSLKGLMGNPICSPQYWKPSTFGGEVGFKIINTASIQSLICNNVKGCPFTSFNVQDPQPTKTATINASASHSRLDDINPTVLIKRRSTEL
Method: The reversibility of the second step in equation (1) could be directly evaluated by the amount of enzyme activity recovered after a prolonged incubation time with substrate. […] The enzymes were pre-incubated for 20 minutes with DMSO or 10 μM INDO, prior to the addition of 50 μM AA. After addition of AA, the oxygenation reactions were allowed to proceed for varying lengths of time. As the reaction time increased, the extent of inhibition decreased if INDO binding was reversible. The time course for recovery of AA oxygenation was fit to a single exponential (FIG. 3A).
The reversibility of DM-INDO inhibition was evaluated similarly to INDO using the activity recovery assay (FIG. 3). The experiments and analysis were performed as described above.

mCOX-2^V349L = target: T2, mCOX-2^V349L (Mus musculus, UniProt Q05769, V335L); experiment: Steady-state quenching of COX intrinsic fluorescence (apo-protein); assay type: binding, murine
T2 construct: made in house; host or cells: Sf9 insect cells (baculovirus, pVL1393)
T2 sequence (Q05769 18-604 V335L): T1 sequence (Q05769 18-604 V335I) with I318L
Method: (§1) Steady-state measurements were performed at 37° C. in a 3.5 ml fluorescence cuvette with continuous stirring. […] Data were collected over 240 or 360 seconds with 2-second integration times. The reversibility of quenching was analyzed in the same manner, with subsequent addition of 50 μM AA as competitor. The ligands were dissolved in DMSO before further dilution into buffer. The organic component in the buffer was below 0.4%.
(§2) This assay provided a method to directly monitor the binding of INDO and DM-INDO to COXs. Various concentrations of INDO and DM-INDO were added to apo-proteins and the rate of fluorescence decrease was monitored over time. After the mixture reached equilibrium, 50 μM of AA was added as competitor to monitor the reversibility of binding. The kinetic data for quenching were analyzed in the same manner as those for inhibition. For clarity, the equilibrium constant for the first step of fluorescence quenching is referred to as Kd, and k2 and k−2 from the second step of quenching are represented by k′2 and k′−2, respectively.

mCOX-2^V349I [2] = target: T1, mCOX-2^V349I; experiment: as above; assay type: binding, murine
Method: as §1, §2

mCOX-2^V349A = target: T3, mCOX-2^V349A (Mus musculus, UniProt Q05769, V335A); experiment: as above; assay type: binding, murine
T3 construct: made in house; host or cells: Sf9 insect cells (baculovirus, pVL1393)
T3 sequence (Q05769 18-604 V335A): T1 sequence (Q05769 18-604 V335I) with I318A
Method: as §1, §2

[3] = fluorescence increase from competition with 50 μM AA

SMILES: COc1ccc2c(c1)c(CC(=O)O)cn2C(=O)c1ccc(Cl)cc1 [DM-INDO, 2-Des-methylindomethacin]
- K−2^b (rate constant determined by reversible inhibition) (mCOX-2^V349I [1]): 0.015 ± 0.005 s⁻¹
- k′−2^b (mCOX-2^V349L; [3]): 0.006 ± 0.001 s⁻¹
- Kd (mCOX-2^V349L; fluorescence quenching): 34 ± 19 µM
- k′2 (mCOX-2^V349L; fluorescence quenching): 0.05 ± 0.01 s⁻¹
- k′−2 (mCOX-2^V349L; fluorescence quenching (decay)): 0.003 ± 0.002 s⁻¹
- k′−2^b (mCOX-2^V349I [2]; [3]): 0.005 ± 0.001 s⁻¹
- Kd (mCOX-2^V349I [2]; fluorescence quenching): 12 ± 5 µM
- k′2 (mCOX-2^V349I [2]; fluorescence quenching): 0.09 ± 0.01 s⁻¹
- k′−2 (mCOX-2^V349I [2]; fluorescence quenching (decay)): 0.003 ± 0.002 s⁻¹
- k′−2^b (mCOX-2^V349A; [3]): 0.046 ± 0.002 s⁻¹
- Kd (mCOX-2^V349A; fluorescence quenching): 1.4 ± 0.3 µM
- k′2 (mCOX-2^V349A; fluorescence quenching): 0.17 ± 0.04 s⁻¹
- k′−2 (mCOX-2^V349A; fluorescence quenching (decay)): 0.045 ± 0.008 s⁻¹
